The target in test [1] is T1, Lysosomal acid glucosylceramidase (Homo sapiens) (UniProt P04062).
T1 sequence (whole entry): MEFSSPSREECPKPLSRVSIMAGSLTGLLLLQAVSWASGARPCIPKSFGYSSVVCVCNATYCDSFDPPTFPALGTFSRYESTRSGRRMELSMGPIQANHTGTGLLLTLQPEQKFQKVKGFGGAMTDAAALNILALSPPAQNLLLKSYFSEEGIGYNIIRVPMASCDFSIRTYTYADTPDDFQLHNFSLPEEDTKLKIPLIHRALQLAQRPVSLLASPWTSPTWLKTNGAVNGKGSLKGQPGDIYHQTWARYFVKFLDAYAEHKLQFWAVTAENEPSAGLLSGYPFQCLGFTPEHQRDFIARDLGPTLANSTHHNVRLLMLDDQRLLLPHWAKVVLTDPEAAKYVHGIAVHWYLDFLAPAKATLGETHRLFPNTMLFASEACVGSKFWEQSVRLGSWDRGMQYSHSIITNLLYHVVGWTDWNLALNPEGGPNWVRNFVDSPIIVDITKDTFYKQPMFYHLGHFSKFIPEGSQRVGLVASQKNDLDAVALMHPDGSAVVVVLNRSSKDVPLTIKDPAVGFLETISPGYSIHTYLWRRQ
Description: Binding affinity to synthetic recombinant wild type GCase enzyme velaglucerase alfa (unknown origin) assessed as thermal stabilization by measuring change in melting temperature at lower concentration at pH 5 for every 10 secs by Sypro Orange-dye based fluorescence thermal shift assay

In test [2] the target is T2, Lysosomal acid glucosylceramidase (Homo sapiens, UniProt P04062).
T2 sequence (P04062 whole entry): T1 sequence (whole entry)
The experiment in a line: Inhibition of synthetic recombinant wild type GCase enzyme velaglucerase alfa (unknown origin) at pH 5.9 preincubated for 5 mins followed by addition of 4-Methylumbelliferyl beta-D-glucopyranoside as substrate measured after 30 mins by fluorescence analysis.

Molecules are shown by their SMILES. pIC50: −log10 of the molar value.

One may read the ΔTm as the shift of the melting midpoint relative to a reference. Broadly, the pIC50 is the IC50 on a negative log10 scale, so that one unit is a factor of ten.

In the case of `c1ccc2c(c1)CC(Nc1nc(-c3ccsc3)nc3ccccc13)C2`, the ΔTm in test [1] came to 11 °C.

On to `C[C@H]1CC[C@H](Nc2nc(-c3cccnc3)nc3ccccc23)CC1`, for which the negative-log IC50 (pIC50) in test [2] was 7.70.
